{
  "source": "patent US4128629A",
  "about": "“Extraction-free cortisol assay” (Corning Glass Works, priority 1977, dated 1978)",
  "note": "Values joined by “and” are separate entries in the source; they are usually repeats but may differ in a detail not shown here. Equal entries are not always repeated.",
  "data": [
    {"test_system": "anticortisol antibody composite", "assay": "Cross-reactivity (specificity) of the solid phase cortisol radioimmunoassay", "type": "binding", "design": "key: ratio of cortisol to cross-reactant amount at 50% displacement", "conditions": "ratio of the cortisol level to the steroid level at fifty percent relative displacement of labeled cortisol from immobilized anti-cortisol antibody", "description": "(§1) A lyophilized mixture of the tracer (about 50,000 DPM), 200 μg of ANS, and PBS is reconstituted to a 100 μl solution with water in an identified glass test tube to which is pipetted a […] serum sample having an unknown cortisol concentration. A non-interferring red dye such as Durkees Staff Brand may be included with the tracer solution to indicate that presence of the tracer.\n(§2) Then, a 1 ml suspension of the immobilized antibodies (0.20 mg of anti-cortisol antibodies chemically coupled via N-hydroxysuccinimide linkage to silanized glass particles having an average particle size of about 1.7 microns is pipetted into the tube. The tube is vortexed for 2 or 3 seconds, allowing the composite of immobilized antibodies to be suspended. The reaction tube is incubated for about 1 hour at room temperature. The tube is then centrifuged for about 10 minutes at about 1400 to 1600 gravities (g). The relatively high density of the glass support facilitates this separation step. After centrifugation, the supernatant fluid is decanted and it or the composite at the bottom of the tube is counted for radioactivity. Since the amount of radioactivity in disintegrations per minute (DPM) of the initial tracer was known, the amount associated with the composite (that which competed with the unknown cortisol for sites on the composite), provides an indication of the cortisol present, using known correlation techniques.\nThe cross-reactivity of the anticortisol antibody composite for a substance may be expressed as the ratio of the amount of cortisol required to displace 50% of the labeled antigen from the antibody, to the amount of cross-reacting substance needed to cause a similar displacement.", "values": [
      {"molecule": "C[C@]12CCC(=O)C=C1CC[C@@H]1[C@@H]2CC[C@@]2(C)[C@H]1CC[C@]2(O)C(=O)CO", "note": "[11-Desoxycortisol]", "Ratio of Cross Reactivity": 0.11},
      {"molecule": "C[C@]12C[C@H](O)[C@H]3[C@@H](CCC4=CC(=O)CC[C@@]43C)[C@@H]1CC[C@@H]2C(=O)CO", "note": "[Corticosterone]", "Ratio of Cross Reactivity": 0.12},
      {"molecule": "C[C@]12CCC(=O)C=C1CC[C@@H]1[C@@H]2[C@@H](O)C[C@@]2(C)[C@H]1CC[C@]2(O)C(=O)CO", "note": "[Cortisol]", "Ratio of Cross Reactivity": 1.00},
      {"molecule": "CC(=O)[C@H]1CC[C@H]2[C@@H]3CCC4=CC(=O)CC[C@]4(C)[C@H]3CC[C@]12C", "note": "[Progesterone]", "Ratio of Cross Reactivity": 0.041},
      {"molecule": "C[C@]12CC[C@H]3[C@@H](CCC4=CC(=O)CC[C@@]43C)[C@@H]1CC[C@@H]2O", "note": "[Testosterone]", "Ratio of Cross Reactivity": 0.002},
      {"molecule": "C[C@]12CC[C@@H]3c4ccc(O)cc4CC[C@H]3[C@@H]1CC[C@@H]2O", "note": "[Estradiol-17β]", "Ratio of Cross Reactivity": "< 0.001"},
      {"molecule": "C[C@]12CC[C@@H](O)C[C@H]1CC[C@@H]1[C@@H]2[C@@H](O)C[C@@]2(C)[C@H]1CC[C@]2(O)C(=O)CO", "note": "[Tetrahydrocortisol]", "Ratio of Cross Reactivity": "< 0.001"},
      {"molecule": "C[C@@H](O)[C@H]1CC[C@H]2[C@@H]3CCC4=CC(=O)CC[C@]4(C)[C@H]3CC[C@]12C", "note": "[20β-Hydroxyprogesterone]", "Ratio of Cross Reactivity": 0.026},
      {"molecule": "C[C@]12CC[C@@H]3c4ccc(O)cc4CC[C@H]3[C@@H]1C[C@@H](O)[C@@H]2O", "note": "[Estriol]", "Ratio of Cross Reactivity": "< 0.001"},
      {"molecule": "C[C@]12CCC(=O)C=C1CC[C@@H]1[C@@H]2CC[C@]2(C)C(=O)CC[C@@H]12", "note": "[Androstenedione]", "Ratio of Cross Reactivity": "< 0.004"},
      {"molecule": "C[C@]12CCC(=O)C=C1CC[C@@H]1[C@@H]2C(=O)C[C@@]2(C)[C@H]1CC[C@]2(O)C(=O)CO", "note": "[Cortisone]", "Ratio of Cross Reactivity": 0.008},
      {"molecule": "C[C@]12CC[C@H]3[C@@H](CCC4=CC(=O)CC[C@@]43C)[C@@H]1CC[C@@H]2C(=O)CO", "note": "[11-Desoxycorticosterone]", "Ratio of Cross Reactivity": 0.10},
      {"molecule": "C[C@]12CC[C@@H]3c4ccc(O)cc4CC[C@H]3[C@@H]1CCC2=O", "note": "[Estrone]", "Ratio of Cross Reactivity": "< 0.001"},
      {"molecule": "CC(C)CCC[C@@H](C)[C@H]1CC[C@H]2[C@@H]3CC=C4C[C@@H](O)CC[C@]4(C)[C@H]3CC[C@]12C", "note": "[Cholesterol]", "Ratio of Cross Reactivity": "< 0.001"},
      {"molecule": "CC(=O)[C@@]1(O)CC[C@H]2[C@@H]3CCC4=CC(=O)CC[C@]4(C)[C@H]3CC[C@@]21C", "note": "[17α-Hydroxyprogesterone]", "Ratio of Cross Reactivity": 0.026},
      {"molecule": "C[C@]12C=CC(=O)C=C1CC[C@@H]1[C@@H]2C(=O)C[C@@]2(C)[C@H]1CC[C@]2(O)C(=O)CO", "note": "[Prednisone]", "Ratio of Cross Reactivity": 0.004},
      {"molecule": "C[C@]12C=CC(=O)C=C1CC[C@@H]1[C@@H]2[C@@H](O)C[C@@]2(C)[C@H]1CC[C@]2(O)C(=O)CO", "note": "[Prednisolone]", "Ratio of Cross Reactivity": 0.10},
      {"molecule": "C[C@]12CCC(=O)C[C@@H]1CC[C@@H]1[C@@H]2CC[C@]2(C)[C@@H](O)CC[C@@H]12", "note": "[5α-Dihydrotestosterone]", "Ratio of Cross Reactivity": 0.007}
    ]},
    {"target": "T1, transcortin (TC) (Homo sapiens, UniProt P08185)", "T1 sequence (P08185 23-405)": "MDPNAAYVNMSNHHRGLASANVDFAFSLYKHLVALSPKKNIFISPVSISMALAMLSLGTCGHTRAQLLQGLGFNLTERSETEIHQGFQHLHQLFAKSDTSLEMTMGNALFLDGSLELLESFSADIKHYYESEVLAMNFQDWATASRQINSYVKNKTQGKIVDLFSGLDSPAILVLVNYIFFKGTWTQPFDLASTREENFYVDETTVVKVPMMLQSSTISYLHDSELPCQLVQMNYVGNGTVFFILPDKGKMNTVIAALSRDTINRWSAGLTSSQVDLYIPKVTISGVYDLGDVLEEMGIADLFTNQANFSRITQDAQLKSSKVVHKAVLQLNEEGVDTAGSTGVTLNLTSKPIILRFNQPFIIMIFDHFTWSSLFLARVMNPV", "assay": "Cortisol released from serum sample (release from TC) by ANS and pH, compared with heat denaturation", "conditions": "typical patient serum samples; one value per patient sample; compared with heating at 100° C. for about 10 min", "description": "as §1\nas §2, with “Since the amount of radioactivity in disintegrations per minute (DPM) of the initial tracer was known, the amount associated with the composite (that which competed with the unknown cortisol for sites on the composite), provides an indication of the cortisol present, using known correlation techniques.” left out", "values": [
      {"molecule": "O=S(=O)(O)c1cccc2cccc(Nc3ccccc3)c12", "note": "[ANS, 8-anilino-1-naphthalene sulfonic acid]", "Cortisol Released": "59 ng/mL and 90 ng/mL and 270 ng/mL and 465 ng/mL"}
    ]}
  ]
}
